Assay results taken from patent US9751858B2, “3-heteroaroylamino-propionic acid derivatives and their use as pharmaceuticals” (SANOFI, priority 2011, dated 2017).

Assays:
platelet aggregation = details: hypertensive animals; H. Ostrowska et al., J. Cardiovasc. Pharmacol. 45 (2005); cited from earlier work
[1] = target: T1, Recombinant human cathepsin A (Homo sapiens, UniProt P10619); test: Cathepsin A inhibitory activity; assay type: biochemical; details: activated recombinant human cathepsin A 833 ng/ml, Bodipy FL-labeled bradykinin 2 μM, pH 5.5, 15 min room temperature
T1 construct: Recombinant human cathepsin A (residues 29-480, with a C-terminal 10-His tag); 10-His (C); purchased R&D Systems 1049-SE
T1 sequence (P10619 29-326 limits assumed): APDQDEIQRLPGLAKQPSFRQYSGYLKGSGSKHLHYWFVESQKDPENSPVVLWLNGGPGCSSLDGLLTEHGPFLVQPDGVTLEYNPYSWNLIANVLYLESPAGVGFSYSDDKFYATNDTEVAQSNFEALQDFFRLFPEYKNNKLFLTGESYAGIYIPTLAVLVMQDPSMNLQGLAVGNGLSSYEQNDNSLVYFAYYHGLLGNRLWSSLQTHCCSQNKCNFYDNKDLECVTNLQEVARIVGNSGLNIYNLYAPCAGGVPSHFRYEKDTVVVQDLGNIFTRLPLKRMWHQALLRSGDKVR
T1 sequence (P10619 327-480 limits assumed): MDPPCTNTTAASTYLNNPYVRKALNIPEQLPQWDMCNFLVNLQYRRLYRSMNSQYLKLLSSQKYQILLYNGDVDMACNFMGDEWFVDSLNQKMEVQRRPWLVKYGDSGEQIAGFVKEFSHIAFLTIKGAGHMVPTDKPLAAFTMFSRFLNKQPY
Summary of the method: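 Cathepsin A activated by cathepsin L (15 min, 37 °C, pH 6.0), then preincubated 15 min at room temperature with compound in 25 mM MES pH 5.5, 5 mM DTT. Bodipy FL-bradykinin cleavage ran 15 min at room temperature; substrate and product separated by microfluidic capillary electrophoresis, turnover from peak areas.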

Row | Compound | platelet aggregation (platelet aggregation) | IC50 [1]
1 | CC[C@@H](C)[C@@H](O)[C@H](C)C(=O)[C@H](C)/C=C(\C)C[C@H](C)[C@@H]1OC(=O)[C@H]1CC [ebelactone B] | suppresses platelet aggregation | –
2 | Cc1oc(-c2ccccc2F)nc1C(=O)N[C@@](C)(CC(=O)O)c1ccccc1 [Example 30, (S)-3-{[2-(2-Fluoro-phenyl)-5-methyl-oxazole-4-carbonyl]-amino}-3-phenyl-butyric acid] | – | > 10 µM
3 | O=C(O)C[C@@H](Cc1ccccc1)NC(=O)c1nc(-c2ccccc2F)no1 [Example 11, (R)-3-{[3-(2-Fluoro-phenyl)-[1,2,4]oxadiazole-5-carbonyl]-amino}-4-phenyl-butyric acid] | – | 4.89 µM
4 | Cc1cccc([C@H](CC(=O)O)NC(=O)c2nc(-c3ccccc3F)oc2C)c1 [Example 27, (S)-3-{[2-(2-Fluoro-phenyl)-5-methyl-oxazole-4-carbonyl]-amino}-3-m-tolyl-propionic acid] | – | 3.49 µM
5 | COc1cccc([C@H](CC(=O)O)NC(=O)c2nc(-c3ccccc3)oc2C(F)(F)F)c1OC [Example 120, (S)-3-(2,3-Dimethoxy-phenyl)-3-[(2-phenyl-5-trifluoromethyl-oxazole-4-carbonyl)-amino]-propionic acid] | – | 8.01 µM
6 | O=C(O)C[C@H](NC(=O)c1nc(-c2ccccc2)n(-c2ccccc2)n1)c1cccc(Cl)c1 [Example 104, (S)-3-(3-Chloro-phenyl)-3-[(1,5-diphenyl-1H-[1,2,4]triazole-3-carbonyl)-amino]-propionic acid] | – | 0.128 µM
7 | Cc1ccc([C@H](CC(=O)O)NC(=O)c2nc(C)n(-c3ccccc3Cl)n2)cc1 [Example 55, (S)-3-{[1-(2-Chloro-phenyl)-5-methyl-1H-[1,2,4]triazole-3-carbonyl]-amino}-3-p-tolyl-propionic acid] | – | 0.738 µM
